Experimental data from article PMC6821309, “Optimization of Insect Odorant Receptor Trafficking and Functional Expression Via Transient Transfection in HEK293 Cells” (Chemical Senses, 2019).

How the values were obtained:
[1] = target: T1, Or56a/Orco (pDmelOR-R.E.hOr56a; mRho.V5.mER.hOr56a + hOrco) (Drosophila melanogaster, UniProt Q9V8Y7); experiment: Fura-2 calcium imaging, automated platform, response normalized to VUAA1; type: cell-based; conditions: agonist; 1 mM CaCl2, pH 7.4; 3-parameter logistic fit; transient HEK293
T1 construct: human codon-optimized Or56a with N-terminal mRho.V5.mER tag; N-terminal myc-tagged codon-optimized Orco, spliced chimeric intron; bidirectional vector, transient HEK293; with Odorant receptor coreceptor
T1 sequence (Q9V8Y7 1-419): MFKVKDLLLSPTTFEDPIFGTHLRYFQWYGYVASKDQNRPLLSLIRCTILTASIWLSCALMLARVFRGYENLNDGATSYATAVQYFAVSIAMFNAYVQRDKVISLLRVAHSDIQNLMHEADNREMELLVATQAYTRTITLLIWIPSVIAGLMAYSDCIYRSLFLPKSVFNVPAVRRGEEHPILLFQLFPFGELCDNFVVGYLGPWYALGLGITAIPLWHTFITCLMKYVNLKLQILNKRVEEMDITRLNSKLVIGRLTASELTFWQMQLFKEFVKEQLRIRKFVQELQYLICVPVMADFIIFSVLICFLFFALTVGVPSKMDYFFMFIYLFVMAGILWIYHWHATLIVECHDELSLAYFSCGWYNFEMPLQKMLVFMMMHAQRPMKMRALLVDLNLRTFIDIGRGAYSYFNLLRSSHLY
T1 sequence (Q9VNB5 1-486 partner): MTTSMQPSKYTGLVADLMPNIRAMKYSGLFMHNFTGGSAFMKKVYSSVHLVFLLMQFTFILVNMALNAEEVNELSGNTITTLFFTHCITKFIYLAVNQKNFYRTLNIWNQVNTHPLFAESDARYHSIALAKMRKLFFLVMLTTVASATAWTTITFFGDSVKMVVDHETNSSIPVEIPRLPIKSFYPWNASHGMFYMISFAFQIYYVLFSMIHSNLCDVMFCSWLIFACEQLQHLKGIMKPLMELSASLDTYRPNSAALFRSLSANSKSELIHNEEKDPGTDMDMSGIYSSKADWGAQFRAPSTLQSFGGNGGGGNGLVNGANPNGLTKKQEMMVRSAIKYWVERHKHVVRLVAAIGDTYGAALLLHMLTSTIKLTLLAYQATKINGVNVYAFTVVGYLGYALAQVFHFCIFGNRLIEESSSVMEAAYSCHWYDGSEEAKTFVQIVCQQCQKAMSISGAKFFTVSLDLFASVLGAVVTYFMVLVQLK
From the text: Fura-2 calcium imaging, automated platform, response normalized to VUAA1 on Or56a/Orco (pDmelOR-R.E.hOr56a; mRho.V5.mER.hOr56a + hOrco) | or with pDmelOR-R.E.hOr56a and stimulated with geosmin (e)

[2] = target: T2, Or47a/Orco heteromer (pDmelOR-R.E.hOr47a; mRho.V5.mER.hOr47a + hOrco) (Drosophila melanogaster, UniProt P81921); experiment: as above; type: cell-based; conditions: agonist; 1 mM CaCl2, pH 7.4; 3-parameter logistic fit; transient HEK293
T2 construct: N-terminal myc-tagged codon-optimized Orco, spliced chimeric intron; bidirectional vector, transient HEK293; with Odorant receptor coreceptor
T2 sequence (P81921 1-385): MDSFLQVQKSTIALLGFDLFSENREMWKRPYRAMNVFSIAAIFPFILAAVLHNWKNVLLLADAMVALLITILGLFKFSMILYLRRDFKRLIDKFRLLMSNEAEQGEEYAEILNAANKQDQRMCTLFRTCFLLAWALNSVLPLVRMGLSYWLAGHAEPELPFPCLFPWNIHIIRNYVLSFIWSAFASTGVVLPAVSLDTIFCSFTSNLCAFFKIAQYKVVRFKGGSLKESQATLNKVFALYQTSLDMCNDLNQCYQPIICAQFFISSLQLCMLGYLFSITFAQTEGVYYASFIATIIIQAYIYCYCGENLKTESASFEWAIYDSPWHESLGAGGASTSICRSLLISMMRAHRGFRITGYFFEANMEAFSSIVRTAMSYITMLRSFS
T2 sequence (Q9VNB5 1-486 partner): T1 sequence (Q9VNB5 1-486 partner)
From the text: Fura-2 calcium imaging, automated platform, response normalized to VUAA1 on Or47a/Orco heteromer (pDmelOR-R.E.hOr47a; mRho.V5.mER.hOr47a + hOrco) | transfected with pDmelOR-R.E.hOr47a and stimulated with pentyl acetate (d)

Row | SMILES | EC50 [1] | EC50 [2]
1 | CC1CCCC2(C)CCCCC12O (racemic) [geosmin] | 7.19·10^–7 (3.97 × 10^–7; 1.30 × 10^–6) M | 
2 | CCCCCOC(C)=O [pentyl acetate] |  | 2.45·10^–5 (1.83 × 10^–5; 3.29 × 10^–5) M
